Laboratory results: patent EP3284739A1, “SUBSTITUTED (HET) ARYL COMPOUNDS AS PESTICIDES” (Bayer CropScience Aktiengesellschaft, priority 2017, dated 2018)
Read-outs that look alike come from different tables or passages of the source.

Experiments:
[1] = system: Ctenocephalides felis; assay: Ctenocephalides felis oral test (feeding on treated citrated cattle blood); assay type: in vivo; conditions: 48 h, Aufwandmenge 100ppm, after 2 days, read-out: Wirkung (Abtötung)
Method: Zwecks Herstellung einer zweckmäßigen Wirkstoffzubereitung vermischt man 10 mg Wirkstoff mit 0,5 ml Dimethylsulfoxid. Durch Verdünnen mit citriertem Rinderblut erhält man die gewünschte Konzentration.
Ca. 20 nüchterne adulte Katzenflöhe (Ctenocephalides felis) werden in eine Kammer eingesetzt, die oben und unten mit Gaze verschlossen ist. Auf die Kammer wird ein Metallzylinder gestellt, dessen Unterseite mit Parafilm verschlossen ist. Der Zylinder enthält die Blut-Wirkstoffzubereitung, die von den Flöhen durch die Parafilmmembran aufgenommen werden kann.
Nach 2 Tagen wird die Abtötung in % bestimmt. Dabei bedeutet 100 %, dass alle Flöhe abgetötet wurden; 0 % bedeutet, dass keiner der Flöhe abgetötet wurde.

[2] = system: Lucilia cuprina; assay: Lucilia cuprina test (L1 larvae on treated minced horse meat); assay type: in vivo; conditions: 48 h, Aufwandmenge 100ppm, after 2 days, read-out: Wirkung (Abtötung)
Method: (§1) Zur Herstellung einer zweckmäßigen Wirkstoffzubereitung vermischt man 10 mg Wirkstoff mit 0,5 ml Dimethylsulfoxid und verdünnt das Konzentrat mit Wasser auf die gewünschte Konzentration.
Ca. 20 L1-Larven der Australischen Schafgoldfliege (Lucilia cuprina) werden in ein Testgefäß überführt, welches gehacktes Pferdefleisch und die Wirkstoffzubereitung der gewünschten Konzentration enthält.
Nach 2 Tagen wird die Abtötung in % bestimmt. Dabei bedeutet 100 %, dass alle Larven abgetötet wurden; 0 % bedeutet, dass keine Larven abgetötet wurden.

[3] = system: Meloidogyne incognita; assay: Meloidogyne incognita test (gall formation on lettuce roots); assay type: in vivo; conditions: 336 h, Aufwandmenge 20ppm, after 14 days, read-out: Wirkung (nematizide Wirkung anhand der Gallenbildung)
Source text: Zur Herstellung einer zweckmäßigen Wirkstoffzubereitung vermischt man 1 Gewichtsteil Wirkstoff mit der angegebenen Menge Lösungsmittel und verdünnt das Konzentrat mit Wasser auf die gewünschte Konzentration.
Gefäße werden mit Sand, Wirkstofflösung, einer Ei-Larven-Suspension des südlichen Wurzelgallenälchens (Meloidogyne incognita) und Salatsamen gefüllt. Die Salatsamen keimen und die Pflänzchen entwickeln sich. An den Wurzeln entwickeln sich die Gallen.
Nach 14 Tagen wird die nematizide Wirkung anhand der Gallenbildung in % bestimmt. Dabei bedeutet 100 %, dass keine Gallen gefunden wurden; 0 % bedeutet, dass die Zahl der Gallen an den behandelten Pflanzen der unbehandelten Kontrolle entspricht.

[4] = system: Phaedon cochleariae; assay: Phaedon cochleariae spray test (Chinese cabbage leaf discs, larvae); assay type: in vivo; conditions: foliar, 168 h, read-out: Wirkung
Source text: (§2) Zur Herstellung einer zweckmäßigen Wirkstoffzubereitung löst man 1 Gewichtsteil Wirkstoff mit den angegebenen Gewichtsteilen Lösungsmittel und füllt mit Wasser, welches eine Emulgatorkonzentration von 1000 ppm enthält, bis zum Erreichen der gewünschten Konzentration auf. Zur Herstellung weiterer Testkonzentrationen wird mit emulgatorhaltigem Wasser verdünnt.
Chinakohlblattscheiben (Brassica pekinensis) werden mit einer Wirkstoffzubereitung der gewünschten Konzentration gespritzt und nach dem Abtrocknen mit Larven des Meerrettichblattkäfers (Phaedon cochleariae) besetzt.
Nach 7 Tagen wird die Wirkung in % bestimmt. Dabei bedeutet 100 %, dass alle Käferlarven abgetötet wurden; 0 % bedeutet, dass keine Käferlarven abgetötet wurden.

[5] = system: Spodoptera frugiperda; assay: Spodoptera frugiperda spray test (maize leaf discs, caterpillars); assay type: in vivo; conditions: foliar, 168 h, Aufwandmenge 500g/ha, after 7 days, read-out: Wirkung
Source text: as §2
Maisblattscheiben (Zea mays) werden mit einer Wirkstoffzubereitung der gewünschten Konzentration gespritzt und nach dem Abtrocknen mit Raupen des Heerwurms (Spodoptera frugiperda) besetzt.
Nach 7 Tagen wird die Wirkung in % bestimmt. Dabei bedeutet 100 %, dass alle Raupen abgetötet wurden; 0 % bedeutet, dass keine Raupe abgetötet wurde.

[6] = system: Musca domestica; assay: Musca domestica test (adult flies, treated sugar sponge); assay type: in vivo; conditions: 48 h, read-out: Wirkung (Abtötung)
Method: as §1
Gefäße, die einen Schwamm enthalten, der mit Zuckerlösung und der Wirkstoffzubereitung der gewünschten Konzentration behandelt wurde, werden mit 10 adulten Stubenfliegen (Musca domestica) besetzt.
Nach 2 Tagen wird die Abtötung in % bestimmt. Dabei bedeutet 100 %, dass alle Fliegen abgetötet wurden; 0 % bedeutet, dass keine der Fliegen abgetötet wurde.

[7] = logP by reversed-phase HPLC (LC-MS), neutral range; assay type: physicochemical; conditions: c18 hplc, ammonium bicarbonate/acetonitrile; pH 7.8, 0,001 molar aqueous Ammoniumhydrogencarbonat / Acetonitril, C 18, 55°C
Method: (§3) Die Messung der logP Werte erfolgt gemäß EEC Directive 79/831 Annex V.A8 durch HPLC (High Performance Liquid Chromatography) an einer Phasenumkehrsäule (C 18). Temperatur: 55°C. Die Bestimmung mit der LC-MS im sauren Bereich erfolgt bei pH 2,7 mit 0,1 % wässriger Ameisensäure und Acetonitril (enthält 0,1% Ameisensäure) als Eluenten; linearer Gradient von 10% Acetonitril bis 95% Acetonitril. In der Tabelle logP (HCOOH) genannt.
Die Bestimmung mit der LC-MS im neutralen Bereich erfolgt bei pH 7.8 mit 0,001 molarer wässriger Ammoniumhydrogencarbonat-Lösung und Acetonitril als Eluenten; linearer Gradient von 10 % Acetonitril bis 95 % Acetonitril. In der Tabelle logP (neutral) genannt.
(§4) Die Eichung erfolgt mit unverzweigten Alkan-2-onen (mit 3 bis 16 Kohlenstoffatomen), deren logP-Werte bekannt sind (Bestimmung der logP-Werte anhand der Retentionszeiten durch lineare Interpolation zwischen zwei aufeinander folgenden Alkanonen).

[8] = system: Tetranychus urticae; assay: Tetranychus urticae spray test, OP-resistant (bean leaf discs); assay type: in vivo; conditions: foliar, 144 h, read-out: Wirkung
Source text: as §2
Bohnenblattscheiben (Phaseolus vulgaris), die von allen Stadien der Gemeinen Spinnmilbe (Tetranychus urticae) befallen sind, werden mit einer Wirkstoffzubereitung der gewünschten Konzentration gespritzt.
Nach 6 Tagen wird die Wirkung in % bestimmt. Dabei bedeutet 100 %, dass alle Spinnmilben abgetötet wurden; 0 % bedeutet, dass keine Spinnmilben abgetötet wurden.

[9] = system: Ctenocephalides felis; assay: Ctenocephalides felis in-vitro contact test with adult cat fleas (coated glass tubes); assay type: in vivo; conditions: 48 h, read-out: Wirkung
Method: Für die Beschichtung der Teströhrchen werden zunächst 9 mg Wirkstoff in 1 ml Aceton p.a. gelöst und anschließend mit Aceton p.a. auf die gewünschte Konzentration verdünnt. 250 µl der Lösung werden durch Drehen und Kippen auf einem Rotationsschüttler (2 h Schaukelrotation bei 30 rpm) homogen auf den Innenwänden und dem Boden eines 25ml Glasröhrchens verteilt. Bei 900 ppm Wirkstofflösung und 44,7 cm^2 Innenoberfläche wird bei homogener Verteilung eine Flächendosis von 5 µg/cm^2 erreicht.
Nach Abdampfen des Lösungsmittels werden die Gläschen mit 5-10 adulten Katzenflöhen (Ctenocephalides felis) besetzt, mit einem gelochten Kunststoffdeckel verschlossen und liegend bei Raumtemperatur und Umgebungsfeuchte inkubiert. Nach 48 h wird die Wirksamkeit bestimmt. Hierzu werden die Gläschen aufrecht gestellt und die Flöhe auf den Boden des Gläschens geklopft. Flöhe, die unbeweglich auf dem Boden verbleiben oder sich unkoordiniert bewegen, gelten als tot bzw. angeschlagen.
Eine Substanz zeigt gute Wirkung gegen Ctenocephalides felis, wenn in diesem Test bei einer Aufwandmenge von 5 µg/cm^2 mindestens 80% Wirkung erzielt wurde. Dabei bedeutet 100% Wirkung, dass alle Flöhe angeschlagen oder tot waren. 0% Wirkung bedeutet, dass keine Flöhe geschädigt wurden.

[10] = logP by reversed-phase HPLC (LC-MS), acidic range; assay type: physicochemical; conditions: c18 hplc, formic acid/acetonitrile; pH 2,7, 0,1 % aqueous Ameisensäure / Acetonitril, C 18, 55°C; read-out: logP (HCOOH)
Method: as §3, §4

| chromatographic logP [7] | SMILES | mortality at 100 µg/mL [1] [%] | mortality at 500 g/ha [4] [%] | mortality at 500 g/ha [5] [%] | also measured |
| --- | --- | --- | --- | --- | --- |
| – | O=C(Nc1cc(-c2ccc(OC(F)(F)F)cc2)cc(NC(=O)C2CC2)n1)C1CC1 [I-001, N,N'-{4-[4-(Trifluormethoxy)phenyl]pyridin-2,6-diyl}dicyclopropancarboxamid] | 100 | 100 | 100 | mortality at 100 µg/mL [2]: 95%; inhibition at 20 µg/mL [3]: 90% |
| – | O=C(Nc1cc(-c2ccc(OC(F)(F)F)cc2)cc(NC(=O)C2(C(F)(F)F)CC2)n1)C1CC1 [I-006] | 100 | 83 | 100 | mortality at 100 µg/mL [6]: 90% |
| 3.73 | COC(=O)N(C(=O)C1CC1)c1cc(-c2ccc(OC(F)(F)F)cc2)cc(N(C(=O)OC)C(=O)C2CC2)n1 [I-037, Dimethyl-{4-[4-(trifluormethoxy)phenyl]pyridin-2,6-diyl}bis[(cyclopropylcarbonyl)carbamat]] | – | – | – | mortality at 500 g/ha ([4]; Aufwandmenge 500g/ha, after 7 days): 100% |
| – | CC1=CC1C(=O)Nc1cc(-c2ccc(OC(F)(F)F)cc2)cc(NC(=O)C2CC2)n1 (centres unmarked) [I-034] | – | – | – | mortality at 500 g/ha ([8]; Aufwandmenge 500g/ha, after 6 days, OP-resistent): 90% |
| – | CC(C)(C)C(=O)Nc1cc(-c2ccc(OC(F)(F)F)cc2)cc(NC(=O)C2CC2)n1 [I-017] | 100 | 100 | 100 | mortality at 500 g/ha [9]: 100% |
| – | O=C(Nc1cc(-c2ccc(C(F)(F)C(F)(F)F)cc2)cc(NC(=O)C2CC2)n1)C1CC1 [I-036] | 100 | 83 | 100 | mortality at 100 µg/mL [2]: 95%; mortality at 500 g/ha [8]: 90% |
| 3.66 | CN(C(=O)C1CC1)c1cc(-c2ccc(OC(F)(F)F)cc2)cc(NC(=O)C2CC2)n1 [I-31, N-{6-[(Cyclopropylcarbonyl)amino]-4-[4-(trifluormethoxy)phenyl]pyridin-2-yl}-N-methylcyclopropancarboxamid] | – | – | – | – |
| 4.05 | CCN(C(=O)C1CC1)c1cc(-c2ccc(OC(F)(F)F)cc2)cc(N(CC)C(=O)C2CC2)n1 [I-29, N,N'-{4-[4-(Trifluormethoxy)phenyl]pyridin-2,6-diyl}bis(N-ethylcyclopropancarboxamid)] | – | – | – | – |
| 2.35 | O=C(Nc1cc(Br)cc(NC(=O)C2CC2)n1)C1CC1 [N,N'-(4-Brompyridin-2,6-diyl)dicyclopropancarboxamid] | – | – | – | – |
| – | O=C(Nc1cc(-c2ccc(OC(F)(F)F)cc2)cc(NC(=O)C2(C3CC3)CC2)n1)C1CC1 [I-014] | 100 | 100 | 100 | mortality at 100 µg/mL [2]: 100%; mortality at 100 µg/mL [6]: 80% |
| 2.83 | Nc1cc(N)cc(-c2ccc(C(F)(F)C(F)(F)F)c(F)c2)c1 [3'-Fluor-4'-(pentafluorethyl)biphenyl-3,5-diamin] | – | – | – | – |
| 3.88 | O=C(Nc1cc(-c2ccc(OC(F)(F)F)cc2)cc(NC(=O)C2(F)CC2)n1)C1CC1 [I-012, N-{6-[(Cyclopropylcarbonyl)amino]-4-[4-(trifluormethoxy)phenyl]pyridin-2-yl}-1-fluorcyclopropancarboxamid] | 95 | 100 | 100 | – |
| – | CC(C)C(=O)Nc1cc(NC(=O)C2CC2)cc(-c2ccc(C(F)(F)C(F)(F)F)c(F)c2)c1 [I-060, N-[3'-Fluor-5-(isobutyrylamino)-4'-(pentafluorethyl)biphenyl-3-yl]cyclopropancarboxamid] | – | 100 | 100 | chromatographic logP [10]: 3.7 |
| – | CC(C)(F)C(=O)Nc1cc(-c2ccc(OC(F)(F)F)cc2)cc(NC(=O)C2CC2)n1 [I-015] | 100 | 100 | 100 | mortality at 500 g/ha [8]: 90% |
| 4.06 | O=C(Nc1cc(-c2ccc(C(F)(F)C(F)(F)F)c(F)c2)cc(NC(=O)C2CC2)n1)C1CC1 [I-035, N,N'-{4-[3-Fluor-4-(pentafluorethyl)phenyl]pyridin-2,6-diyl}dicyclopropancarboxamid] | – | 100 | 100 | – |
| 4.98 | FC(F)(F)Oc1ccc(-c2cc(NC(=S)C3CC3)nc(NC(=S)C3CC3)c2)cc1 [I-032, N,N'-{4-[4-(Trifluormethoxy)phenyl]pyridin-2,6-diyl}dicyclopropancarbothioamid] | – | – | 100 | – |
| 1.46 | Nc1cc(Br)c(Cl)c(N)n1 [4-Brom-3-chlorpyridin-2,6-diamin] | – | – | – | – |
| 0.89 | CC1(C)OB(c2cc(NC(=O)C3CC3)nc(NC(=O)C3CC3)c2)OC1(C)C [N,N'-[4-(4,4,5,5-Tetramethyl-1,3,2-dioxaborolan-2-yl)pyridin-2,6-diyl]dicyclopropancarboxamid] | – | – | – | – |
| 2.79 | Nc1cc(-c2ccc(OC(F)(F)F)cc2)cc(NC(=O)C2CC2)n1 [N-{6-Amino-4-[4-(trifluormethoxy)phenyl]pyridin-2-yl}cyclopropancarboxamid] | – | – | – | – |
| 3.32 | CC(C)C(=O)Nc1cc(N)cc(-c2ccc(C(F)(F)C(F)(F)F)c(F)c2)c1 [N-[5-Amino-3'-fluor-4'-(pentafluorethyl)biphenyl-3-yl]-2-methylpropanamid] | – | – | – | – |
| 1.61 | Nc1cc(Br)cc(NC(=O)C2CC2)n1 [N-(6-Amino-4-brompyridin-2-yl)cyclopropancarboxamid] | – | – | – | – |
| 4.44 | O=C(Nc1cc(-c2ccc(OC(F)(F)F)cc2)cc(NC(=S)C2CC2)n1)C1CC1 [I-033, N-{6-[(Cyclopropylcarbonothioyl)amino]-4-[4-(trifluormethoxy)phenyl]pyridin-2-yl}cyclopropancarboxamid] | – | – | 100 | – |
